In the supplement of paper PMC11061612:

Legend:
Experiment in all cases: Bliss excess, mean over the matrix (fraction); higher = more synergy
[1] = tested on: HPAC (Pancreatic Carcinoma)
In short: (§1)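 After 24 hours at 37°C and 5% CO2 in 1536-well plates, cells in DMEM/F12 or RPMI plus 10% FBS received two-drug dose matrices for 72 hours. Viability came from CellTiter-Glo 2.0 luminescence and was scaled as inhibition, anchored at 0 by vehicle wells and at 1 by blank wells. Combination Emax is taken as the second-highest inhibition in the matrix, and Bliss excess as the observed combination effect less EA + EB − EA·EB, with EA and EB the single-agent effects.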

[2] = tested on: COR-L95 (Small Cell Lung Carcinoma)
In short: as §1

[3] = tested on: IHH-4 (Thyroid Gland Carcinoma)
In short: as §1

[4] = tested on: HT-29 (Colorectal Carcinoma)
In short: as §1

[5] = tested on: SN12C (Kidney Carcinoma)
In short: as §1

[6] = tested on: SNU-C5 (Colorectal Carcinoma)
In short: as §1

[7] = tested on: DB (B-Cell Non-Hodgkin's Lymphoma)
In short: as §1

[8] = tested on: EM-2 (Chronic Myelogenous Leukemia)
In short: as §1

[9] = tested on: OCI-AML2 (Acute Myeloid Leukemia)
In short: as §1

[10] = tested on: C3A (Hepatocellular Carcinoma)
In short: as §1

[11] = tested on: U-266 (Plasma Cell Myeloma)
In short: as §1

[12] = tested on: J82 (Bladder Carcinoma)
In short: as §1

[13] = tested on: NCI-H1299 (Non-Small Cell Lung Carcinoma)
In short: as §1

[14] = tested on: KARPAS-620 (Plasma Cell Myeloma)
In short: as §1

[15] = tested on: NALM-6 (B-Lymphoblastic Leukemia)
In short: as §1

[16] = tested on: LU-99A (Non-Small Cell Lung Carcinoma)
In short: as §1

[17] = tested on: SW1783 (Low Grade Glioma)
In short: as §1

[18] = tested on: CFPAC-1 (Pancreatic Carcinoma)
In short: as §1

[19] = tested on: SW756 (Cervical Carcinoma)
In short: as §1

[20] = tested on: 697 (B-Lymphoblastic Leukemia)
In short: as §1

| SMILES | Bliss excess [1] | Bliss excess [2] | Bliss excess [3] | Bliss excess [4] | Bliss excess [5] | Bliss excess [6] | Bliss excess [7] | Bliss excess [8] | Bliss excess [9] | Bliss excess [10] | Bliss excess [11] | Bliss excess [12] | Bliss excess [13] | Bliss excess [14] | Bliss excess [15] | Bliss excess [16] | Bliss excess [17] | Bliss excess [18] | Bliss excess [19] | Bliss excess [20] |
| --- | --- | --- | --- | --- | --- | --- | --- | --- | --- | --- | --- | --- | --- | --- | --- | --- | --- | --- | --- | --- |
| COc1cccc(OCCCN)c1-c1cc(Nc2cnc(C#N)cn2)n[nH]1 [Prexasertib] + C[C@@H]1COCCN1C2=NC(=NC(=C2)C3(CC3)[S@](=N)(=O)C)C4=C5C=CNC5=NC=C4 [AZD6738] (first compound max 1 µM, 7x7, partner max 10 µM) | -0.0351 | 0.0074 | 0.0132 | -0.0361 | 0.0012 | -0.0143 | -0.0569 | -0.0344 | -0.021 | -0.034 | -0.0859 | -0.0198 | -0.0013 | -0.0375 | -0.0522 | -0.0398 | 0.0261 | -0.0284 | -0.0307 | 0.0031 |
| NC1(C(=O)N[C@@H](CCO)c2ccc(Cl)cc2)CCN(c2ncnc3[nH]ccc23)CC1 [Capivasertib] + Cn1cnc2c(F)c(Nc3ccc(Br)cc3Cl)c(C(=O)NOCCO)cc21 [Selumetinib] (first compound max 10 µM, 7x7, partner max 10 µM) | 0.0152 | -0.0359 | -0.0165 | -0.0119 | 0.0041 | 0.0154 | -0.0093 | 0.0766 | 0.0547 | -0.0208 | 0.0745 | -0.021 | 0.0153 | 0.114 | 0.0323 | -0.0222 | -0.0097 | 0.0351 | -0.0177 | -0.165 |
| CC(=O)c1c(C)c2cnc(Nc3ccc(N4CCNCC4)cn3)nc2n(C2CCCC2)c1=O [Palbociclib] + Cn1cnc2c(F)c(Nc3ccc(Br)cc3Cl)c(C(=O)NOCCO)cc21 [Selumetinib] (first compound max 10 µM, 7x7, partner max 10 µM) | 0.0461 | -0.0843 | 0.0575 | 0.0336 | -0.0321 | -0.0615 | -0.0167 | 0.0533 | 0.0685 | -0.0011 | 0.0393 | -0.0538 | 0.108 | 0.166 | 0.0335 | -0.0398 | -0.0447 | -0.0354 | -0.0736 | -0.0685 |
| CCN(CCO)CCCOc1ccc2c(Nc3cc(CC(=O)Nc4cccc(F)c4)[nH]n3)ncnc2c1 [AZD2811] + C=CCn1c(=O)c2cnc(Nc3ccc(N4CCN(C)CC4)cc3)nc2n1-c1cccc(C(C)(C)O)n1 [AZD1775] (first compound max 1 µM, partner max 1 µM) | 0.0048 | -0.0225 | 0.0451 | -0.0446 | -0.0698 | 0.0188 | 0.0251 | -0.0184 | 0.0077 | -0.0279 | 0.0031 | 0.0001 | -0.024 | -0.0619 | -0.0515 | -0.0354 | -0.073 | -0.0695 | -0.01 | 0.0164 |
| CN(C)CCCOc1ccc(-c2ccc3ncc4c(c3c2)n(C2CCOCC2)c(=O)n4C)cn1 [AZD0156] + C=CCn1c(=O)c2cnc(Nc3ccc(N4CCN(C)CC4)cc3)nc2n1-c1cccc(C(C)(C)O)n1 [AZD1775] (first compound max 1 µM, partner max 1 µM) | -0.0284 | -0.107 | 0.0247 | -0.0411 | -0.0717 | -0.0296 | -0.0119 | -0.0548 | -0.0258 | -0.0866 | 0.0168 | -0.0194 | -0.0179 | 0.0135 | 0.0093 | -0.0422 | -0.0624 | -0.0645 | -0.0386 | 0.0183 |
| Cc1c2c(nn1C)CSCc1cc(n(C)n1)CSc1cc(c3ccccc3c1)OCCCc1c(C(=O)O)n(C)c3c-2c(Cl)ccc13 [AZD5991] + CC1(C)CCC(CN2CCN(c3ccc(C(=O)NS(=O)(=O)c4ccc(NCC5CCOCC5)c([N+](=O)[O-])c4)c(Oc4cnc5[nH]ccc5c4)c3)CC2)=C(c2ccc(Cl)cc2)C1 [Venetoclax] (first compound max 1 µM, 7x7, partner max 1 µM) | -0.0498 | 0.0616 | 0.0037 | -0.0015 | -0.0193 | -0.0164 | 0.185 | 0.248 | 0.143 | -0.0519 | 0.0759 | -0.0232 | -0.031 | 0.119 | 0.173 | -0.0555 | -0.0164 | -0.0112 | -0.0331 | -0.0564 |
| CC1(C)CCC(CN2CCN(c3ccc(C(=O)NS(=O)(=O)c4ccc(NCC5CCOCC5)c([N+](=O)[O-])c4)c(Oc4cnc5[nH]ccc5c4)c3)CC2)=C(c2ccc(Cl)cc2)C1 [Venetoclax] + CN(C)CCCOc1ccc(-c2ccc3ncc4c(c3c2)n(C2CCOCC2)c(=O)n4C)cn1 [AZD0156] (first compound max 1 µM, 7x7, partner max 1 µM) | -0.0146 | 0.0051 | -0.0153 | -0.0086 | -0.0307 | -0.0123 | -0.0166 | -0.0045 | -0.0267 | -0.0414 | 0.0264 | 0.0014 | -0.004 | 0.04 | 0.0426 | -0.0375 | -0.0532 | 0.0025 | -0.0215 | -0.0012 |
| Cc1c2c(nn1C)CSCc1cc(n(C)n1)CSc1cc(c3ccccc3c1)OCCCc1c(C(=O)O)n(C)c3c-2c(Cl)ccc13 [AZD5991] + Cc1cc2ncnn2cc1Nc1ncc2c(n1)n(C1CCOCC1)c(=O)n2C [AZD7648] (first compound max 1 µM, 7x7, partner max 10 µM) | -0.0679 | -0.0957 | -0.0281 | 0.0049 | -0.0335 | -0.0085 | -0.0087 | 0.0206 | 0.019 | -0.0312 | 0.0078 | -0.0231 | -0.0436 | 0.0308 | -0.0303 | -0.0397 | -0.0408 | -0.002 | -0.0367 | -0.0603 |
| CCc1c2c(nc3ccc(O)cc13)-c1cc3c(c(=O)n1C2)COC(=O)[C@]3(O)CC [SN-38] + CN(C)CCCOc1ccc(-c2ccc3ncc4c(c3c2)n(C2CCOCC2)c(=O)n4C)cn1 [AZD0156] (first compound max 0.3 µM, 7x7, partner max 1 µM) | 0.0584 | -0.0989 | 0.0457 | 0.0693 | 0.011 | 0.036 | -0.0305 | 0.0812 | 0.0764 | -0.0646 | -0.0099 | -0.0299 | 0.0495 | -0.0242 | 0.0336 | 0.0406 | -0.039 | -0.0436 | -0.0273 | 0.0689 |
| CN(C)CCCOc1ccc(-c2ccc3ncc4c(c3c2)n(C2CCOCC2)c(=O)n4C)cn1 [AZD0156] + C[C@@H]1COCCN1C2=NC(=NC(=C2)C3(CC3)[S@](=N)(=O)C)C4=C5C=CNC5=NC=C4 [AZD6738] (first compound max 1 µM, 7x7, partner max 10 µM) | 0.067 | -0.0363 | 0.0537 | -0.0211 | -0.0795 | 0.0298 | -0.0151 | 0.0124 | -0.051 | 0.0318 | -0.117 | 0 | 0.0234 | 0.0058 | -0.0082 | -0.0423 | -0.0435 | -0.0137 | -0.0006 | 0.0085 |
| C[C@@H](c1ccc2nccn2c1)n1nnc2ncc(-c3cnn(C)c3)nc21 [Savolitinib] + Cc1c2c(nn1C)CSCc1cc(n(C)n1)CSc1cc(c3ccccc3c1)OCCCc1c(C(=O)O)n(C)c3c-2c(Cl)ccc13 [AZD5991] (first compound max 1 µM, 7x7, partner max 1 µM) | -0.0586 | -0.0171 | -0.0182 | -0.0297 | -0.0535 | -0.05 | 0.0299 | -0.0401 | -0.0167 | -0.0229 | -0.0655 | -0.0717 | -0.0519 | -0.049 | -0.0141 | -0.0346 | -0.0133 | -0.0875 | -0.0692 | -0.0516 |
